Source: patent publication US20150038438A1, “ANTIBACTERIAL COMPOUNDS AND METHODS FOR USE” (PTC THERAPEUTICS, INC., priority 2011, published 2015)
Converted amounts (≈) assume the structure as drawn. Structures can show the parent of a compound that is named as a salt.

Experiments:
Assay in all cases: Antibacterial activity, microbroth dilution method (MIC)
[1] = system: Gram-positive Staphylococcus aureus (S. aureus) 29213; type: cell-based; conditions: Staphylococcus aureus, Gram-positive S. aureus 29213
In short: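 Broth microdilution against S. aureus 29213, E. coli 25922 and hypersensitive E. coli BAS849. MIC in μg/mL is the lowest drug concentration preventing macroscopically visible growth under test conditions.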

[2] = system: super sensitive Gram-negative Escherichia coli (E. coli) BAS849; type: cell-based; conditions: Escherichia coli; super sensitive Gram-negative E. coli BAS849; microbroth dilution; read-out: MIC, E. coli BAS849
In short: (§1)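 Read-out: visual absence of growth. The lowest concentration meeting this gives the MIC, expressed in μg/mL, with microbroth dilution as the method.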

[3] = system: control Gram-negative E. coli 25922 strain; type: cell-based, Escherichia coli; conditions: Escherichia coli
In short: as §1

Structure (SMILES)	MIC [1] [µg/mL]	MIC [2] [µg/mL]	MIC [3] [µg/mL]
CN1CCN(c2ccc3c(c2)CCCc2c-3[nH]c(=O)c(C(=O)O)c2O)CC1.Cl [Cpd 120, 4-hydroxy-9-(4-methylpiperazin-1-yl)-2-oxo-2,5,6,7-tetrahydro-1H-benzo[6,7]cyclohepta[1,2-b]pyridine-3-carboxylic acid hydrochloride]	12.5 to 150	1 to 3.5	12.5 to 150
Cl.O=C(O)c1c(O)c2c([nH]c1=O)-c1ccc(N3CCC4(CNC4)C3)cc1CCC2 [Cpd 121, 4-hydroxy-2-oxo-9-(2,6-diazaspiro[3.4]octan-6-yl)-2,5,6,7-tetrahydro-1H-benzo[6,7]cyclohepta[1,2-b]pyridine-3-carboxylic acid hydrochloride]	12.5 to 150	3.5 to 12.5	12.5 to 150
Cl.O=C(O)c1c(O)c2c([nH]c1=O)-c1ccc(N3CCC4(CCNC4)C3)cc1CCC2 (stereo not drawn) [Cpd 122, 4-hydroxy-2-oxo-9-(2,7-diazaspiro[4.4]nonan-2-yl)-2,5,6,7-tetrahydro-1H-benzo[6,7]cyclohepta[1,2-b]pyridine-3-carboxylic acid hydrochloride]	12.5 to 150	12.5 to 150	12.5 to 150
CN1CCC2(CCN(c3ccc4c(c3)CCCc3c-4[nH]c(=O)c(C(=O)O)c3O)C2)C1.Cl (stereo not drawn) [Cpd 123, 4-hydroxy-9-(7-methyl-2,7-diazaspiro[4.4]nonan-2-yl)-2-oxo-2,5,6,7-tetrahydro-1H-benzo[6,7]cyclohepta[1,2-b]pyridine-3-carboxylic acid hydrochloride]	12.5 to 150	< 1	3.5 to 12.5
N[C@@H]1[C@H]2CN(c3cc4c(c(F)c3F)-c3[nH]c(=O)c(C(=O)O)c(O)c3CCC4)C[C@@H]12 [Cpd 124, 9-((cis,cis)-6-amino-3-azabicyclo[3.1.0]hexan-3-yl)-10,11-difluoro-4-hydroxy-2-oxo-2,5,6,7-tetrahydro-1H-benzo[6,7]cyclohepta[1,2-b]pyridine-3-carboxylic acid hydrochloride]	12.5 to 150	< 1	3.5 to 12.5
N[C@@H]1[C@H]2CN(c3cc(F)c4c(c3)CCCc3c-4[nH]c(=O)c(C(=O)O)c3O)C[C@@H]12 [Cpd 125, 9-((cis,cis)-6-amino-3-azabicyclo[3.1.0]hexan-3-yl)-11-fluoro-4-hydroxy-2-oxo-2,5,6,7-tetrahydro-1H-benzo[6,7]cyclohepta[1,2-b]pyridine-3-carboxylic acid hydrochloride]	12.5 to 150	< 1	3.5 to 12.5
O=C(O)c1c(O)c2c([nH]c1=O)-c1ccc(N3CCCC3)cc1CCCC2 [Cpd 126, 4-hydroxy-2-oxo-10-(pyrrolidin-1-yl)-1,2,5,6,7,8-hexahydrobenzo[7,8]cycloocta[1,2-b]pyridine-3-carboxylic acid]	1 to 3.5 (≈ 2.82 to 9.88 µM)	< 1	12.5 to 150 (≈ 35.3 to 423 µM)
N[C@@H]1[C@H]2CN(c3ccc4c(c3)CCCCc3c-4[nH]c(=O)c(C(=O)O)c3O)C[C@@H]12 [Cpd 127, 10-((cis,cis)-6-amino-3-azabicyclo[3.1.0]hexan-3-yl)-4-hydroxy-2-oxo-1,2,5,6,7,8-hexahydrobenzo[7,8]cycloocta[1,2-b]pyridine-3-carboxylic acid hydrochloride]	3.5 to 12.5	< 1	< 1
CCCNc1ccc2c(c1)CCCCc1c-2[nH]c(=O)c(C(=O)O)c1O [Cpd 128, 4-hydroxy-2-oxo-10-(propylamino)-1,2,5,6,7,8-hexahydrobenzo[7,8]cycloocta[1,2-b]pyridine-3-carboxylic acid]	3.5 to 12.5 (≈ 10.2 to 36.5 µM)	1 to 3.5 (≈ 2.92 to 10.2 µM)	12.5 to 150 (≈ 36.5 to 438 µM)
CCNc1ccc2c(c1)CCCCc1c-2[nH]c(=O)c(C(=O)O)c1O [Cpd 129, 10-(ethylamino)-4-hydroxy-2-oxo-1,2,5,6,7,8-hexahydrobenzo[7,8]cycloocta[1,2-b]pyridine-3-carboxylic acid]	3.5 to 12.5 (≈ 10.7 to 38.1 µM)	1 to 3.5 (≈ 3.05 to 10.7 µM)	12.5 to 150 (≈ 38.1 to 457 µM)
Cn1c2c(cc(C(=O)O)c1=O)CC=Cc1cc3c(ccn3C)cc1-2 [Cpd 130, 1,9-dimethyl-2-oxo-1,2,5,9-tetrahydropyrido[3′,2′:6,7]cyclohepta[1,2-f]indole-3-carboxylic acid]	12.5 to 150 (≈ 39 to 468 µM)	< 1	3.5 to 12.5 (≈ 10.9 to 39 µM)
Cn1c2c(c(O)c(C(=O)O)c1=O)CC=Cc1cc3c(ccn3C)cc1-2 [Cpd 131, 4-hydroxy-1,9-dimethyl-2-oxo-1,2,5,9-tetrahydropyrido[3′,2′:6,7]cyclohepta[1,2-f]indole-3-carboxylic acid]	3.5 to 12.5 (≈ 10.4 to 37.2 µM)	< 1	12.5 to 150 (≈ 37.2 to 446 µM)
CCn1c2c(c(O)c(C(=O)O)c1=O)CC=Cc1cc3c(ccn3C)cc1-2 [Cpd 132, 1-ethyl-4-hydroxy-9-methyl-2-oxo-1,2,5,9-tetrahydropyrido[3′,2′:6,7]cyclohepta[1,2-f]indole-3-carboxylic acid]	3.5 to 12.5 (≈ 9.99 to 35.7 µM)	3.5 to 12.5 (≈ 9.99 to 35.7 µM)	12.5 to 150 (≈ 35.7 to 428 µM)
Cn1c2c(cc(C(=O)O)c1=O)CCCc1cc3c(ccn3C)cc1-2 [Cpd 133, 1,9-dimethyl-2-oxo-1,2,5,6,7,9-hexahydropyrido[3′,2′:6,7]cyclohepta[1,2-f]indole-3-carboxylic acid]	12.5 to 150 (≈ 38.8 to 465 µM)	< 1	3.5 to 12.5 (≈ 10.9 to 38.8 µM)
Cn1c2c(c(O)c(C(=O)O)c1=O)CCCc1cc3c(ccn3C)cc1-2 [Cpd 134, 4-hydroxy-1,9-dimethyl-2-oxo-1,2,5,6,7,9-hexahydropyrido[3′,2′:6,7]cyclohepta[1,2-f]indole-3-carboxylic acid]	3.5 to 12.5 (≈ 10.3 to 36.9 µM)	< 1	12.5 to 150 (≈ 36.9 to 443 µM)
CN1CCc2cc3c(cc21)CCCc1c(O)c(C(=O)O)c(=O)n(C)c1-3 [Cpd 135, 4-hydroxy-1,9-dimethyl-2-oxo-1,2,5,6,7,9,10,11-octahydropyrido[3′,2′:6,7]cyclohepta[1,2-f]indole-3-carboxylic acid]	3.5 to 12.5 (≈ 10.3 to 36.7 µM)	< 1	12.5 to 150 (≈ 36.7 to 441 µM)
CCCCNCc1cc2cc3c(cc2n1C)CCCc1c-3[nH]c(=O)c(C(=O)O)c1O.Cl [Cpd 136, 10-((butylamino)methyl)-4-hydroxy-9-methyl-2-oxo-1,2,5,6,7,9-hexahydropyrido[3′,2′:6,7]cyclohepta[1,2-f]indole-3-carboxylic acid hydrochloride]	3.5 to 12.5	< 1	< 1
CCCCCNCc1cc2cc3c(cc2n1C)CCCc1c-3[nH]c(=O)c(C(=O)O)c1O.Cl [Cpd 137, 4-hydroxy-9-methyl-2-oxo-10-((pentylamino)methyl)-1,2,5,6,7,9-hexahydropyrido[3′,2′:6,7]cyclohepta[1,2-f]indole-3-carboxylic acid hydrochloride]	3.5 to 12.5	< 1	< 1
CCCCCCNCc1cc2cc3c(cc2n1C)CCCc1c-3[nH]c(=O)c(C(=O)O)c1O.Cl [Cpd 138, 10-((hexylamino)methyl)-4-hydroxy-9-methyl-2-oxo-1,2,5,6,7,9-hexahydropyrido[3′,2′:6,7]cyclohepta[1,2-f]indole-3-carboxylic acid hydrochloride]	1 to 3.5	< 1	1 to 3.5
CCCCCCCNCc1cc2cc3c(cc2n1C)CCCc1c-3[nH]c(=O)c(C(=O)O)c1O.Cl [Cpd 139, 10-((heptylamino)methyl)-4-hydroxy-9-methyl-2-oxo-1,2,5,6,7,9-hexahydropyrido[3′,2′:6,7]cyclohepta[1,2-f]indole-3-carboxylic acid hydrochloride]	1 to 3.5	< 1	12.5 to 150
